Our source for the GI50 and TGI values is PubChem BioAssay (NCI).

Values joined by “and” are separate entries in the source; they are usually repeats but may differ in a detail not shown here. Identical values can stand only once.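 How tested: cells in 96-well plates exposed to compound for 48 hours at five concentrations. The concentration for 50% growth inhibition is given as GI50. TGI: total growth inhibition.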 Some results are limits rather than exact numbers.

Holding throughout (assay): inhibition of tumour cell growth, NCI panel, 48 h
Assay [1] has as its system IGROV1 ovarian.
The subject of assay [2] is NCI-H460 lung.
Assay [3] has as its system MCF7 breast.
Assay [4] relates to ACHN renal.
Assay [5] deals with RXF 393 renal.
Assay [6] has as its system TK-10 renal.
Assay [7] has as its system EKVX NSCLC.
The test system of assay [8] is DU-145 prostate.
Assay [9] concerns UACC-257 melanoma.
In assay [10] the test system is CAKI-1 renal.

`CC[C@]12C=CCN3CC[C@]4(C(=C(C(=O)OC)C1)Nc1cc5c(cc14)[C@@H]1[C@H](O5)[C@@H](O)[C@@]4(CC)CC(C(=O)OC)=C5Nc6ccccc6[C@@]56CCN1[C@@H]46)[C@@H]32`: the GI50 in assay [1] was 156 nM and 253 nM; in assay [2], 1050 nM and 1130 nM; in assay [3], 144 nM and 275 nM; in [4], 189 nM and 275 nM; in [5], 523 nM and 456 nM; in [6] it was 185 nM and 402 nM. For the same molecule, the GI50 in assay [7] is 927 nM and 748 nM; in assay [8], 1590 nM and 1770 nM; in assay [9], 582 nM and 672 nM; in [10], 81.9 nM and 268 nM. Moreover, the TGI is 3.99 µM and 14 µM in assay [1]; 7.05 µM and 11.9 µM in assay [2]; 25 µM and 26.6 µM in assay [3]; 2.86 µM and 1.79 µM in [4]; 3.76 µM and 2.56 µM in [5]; 25 µM and 33.8 µM in [7]. For the same molecule, the TGI is 25 µM and 10.7 µM in [8]; 25 µM and 42.8 µM in assay [9]; 8.09 µM and 37.7 µM in assay [10].
Consider `CCOC(=O)c1c(C)n([O-])c2cc(F)c(F)cc2[n+]1=O`, for which the GI50 is 491 nM in assay [1]; 2880 nM in assay [2]; 4320 nM in assay [3]; 1730 nM in assay [4]; 1800 nM in assay [5]; 17400 nM in [6]. Besides, the GI50 in assay [7] was 1960 nM; in [8], 3270 nM; in assay [9], 1700 nM; in [10] it was 1630 nM. For the same molecule, the TGI in assay [2] was 15.9 µM; in assay [3], more than 37.4 µM; in assay [4], 3.23 µM; in assay [5], 5.76 µM; in assay [6] it was 32.5 µM; in assay [7], 3.98 µM. Moreover, the TGI stood at 9.01 µM in assay [8], 3.69 µM in assay [9] and 3.04 µM in assay [10].
`CCc1ccc(Oc2c(-c3ccc(OCCc4cccc(C(F)(F)F)c4)cc3O)n[nH]c2C(F)(F)F)cc1`: the GI50 in [1] was 2510 nM; in assay [2] it was 1670 nM; in assay [3], 2240 nM; in assay [4], 2180 nM; in assay [5], 4940 nM; in assay [6], 5520 nM. Further, the GI50 in assay [7] was 5110 nM; in assay [8], 2620 nM; in [9], 4580 nM; in assay [10], 6790 nM. The TGI in [1] turned out to be 8.72 µM; in assay [2], 5.74 µM; in [3] it was 7.82 µM; in assay [4] it was 7.66 µM; in [5], 11.4 µM; in assay [6] it was 11.5 µM. Also, the TGI was found to be 11.2 µM in [7], 8.35 µM in assay [8], 10.6 µM in assay [9] and 13.3 µM in assay [10].
In the case of `CS(=O)(=O)Nc1cc(-c2ccc3ncc(C#N)c(Nc4ccc(F)c(Cl)c4)c3c2)cnc1Cl`, the GI50 in assay [1] was 60.9 nM; in [2] it was 301 nM; in assay [3], 94.6 nM; in [4] it was 304 nM; in assay [5] it was 125 nM; in assay [6] it was 166 nM. In addition, the GI50 was 275 nM in [7], 242 nM in assay [8], 194 nM in assay [9] and 258 nM in assay [10]. Also, the TGI is 0.372 µM in assay [1]; more than 29.1 µM in assay [2]; more than 100 µM in [3]; more than 100 µM in assay [4]; 0.6 µM in assay [5]; 0.793 µM in assay [6]. For the same molecule, the TGI in assay [7] was 3.29 µM; in assay [8], more than 22.1 µM; in assay [9], 2.14 µM; in assay [10] it was 1.24 µM.
As for `COc1cccc2nc(Nc3cccc(NC(=O)c4ccc(N5CCN(C)CC5)c(C(F)(F)F)c4)c3)ccc12`, the GI50 is 1250 nM in assay [1]; 964 nM in assay [2]; 851 nM in [3]; 1530 nM in assay [4]; 802 nM in [5]; 2010 nM in assay [6]. Moreover, the GI50 in [7] is 1830 nM; in [8], 1810 nM; in [9], 1360 nM; in assay [10], 1120 nM. The TGI was 4.24 µM in [1]; 1.98 µM in assay [2]; 1.9 µM in assay [3]; 4.57 µM in assay [4]; 2.96 µM in [5]; 6.62 µM in assay [6]. In addition, the TGI in [7] was found to be 6.92 µM; in assay [8], 6.38 µM; in assay [9] it was 3.51 µM; in assay [10] it was 3.46 µM.
As to `CC(C)n1cc(-c2ccc3c(c2)N(C)CC3)c2c(NS(=O)(=O)c3ccn(C)n3)ccnc21`, the GI50 is 59100 nM in [1]; 47900 nM in [2]; 31500 nM in assay [3]; 49800 nM in assay [4]; 29100 nM in assay [5]; more than 100000 nM in assay [6]. The GI50 was 28200 nM in assay [7], more than 100000 nM in [8], more than 100000 nM in assay [9] and 44300 nM in assay [10]. For the same molecule, the TGI in assay [1], in assay [2], in [3], in assay [4], in [5] and in assay [6] was more than 100 µM in each case. Further, the TGI in assay [7], in [8], in assay [9] and in assay [10] was more than 100 µM in each case.
Regarding `COc1ccc(C2=C(c3ccccc3)C(=O)N3CCCC3C2)cc1` (configuration not stated), the GI50 is 8510 nM in assay [1]; 2980 nM in [3]; 2390 nM in assay [4]; 25500 nM in [5]; 12900 nM in assay [6]; more than 82900 nM in assay [7]. The figures for the GI50 in assay [8], in assay [9] and in assay [10] were 4130 nM, more than 49000 nM and 8050 nM, respectively. In addition, the TGI in [1] is more than 100 µM; in assay [2], more than 62.9 µM; in assay [3] it was more than 100 µM; in assay [4], more than 100 µM; in assay [5], more than 100 µM; in [6] it was more than 100 µM. Besides, the TGI in assay [7], in [8], in assay [9] and in [10] was more than 100 µM in each case.
